Assay results from patent US20140107109A1, “AMINO-DIHYDROTHIAZINE AND AMINO-DIOXIDO DIHYDROTHIAZINE COMPOUNDS AS BETA-SECRETASE ANTAGONISTS AND METHODS OF USE” (Amgen Inc., priority 2012, published 2014).
Where two headings read alike, the source gives them in different places.

How the values were obtained:
[1] = test system: Aβ40 in conditioned medium of cells stably expressing Amyloid Precursor Protein (APP); assay: In vitro BACE cell-based assay (HEK cell assay), Aβ40 sandwich ELISA; conditions: Homo sapiens, HEK293
How it was run: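 APP-stably expressing cells (40K/well, grown 24 h in DMEM/10% FBS) were treated 24 h with compounds in 10-point dose response starting at 100 μM or 10 μM, 0.1% DMSO final. Secreted Aβ40 was measured by sandwich ELISA (pAb40 capture, biotinylated 6E10 detection, europium time-resolved fluorescence); IC50 from percent inhibition.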

Cathepsin D (Cat D) = target: T1, Cathepsin D (Cat D) (Homo sapiens, UniProt P07339); assay: In vitro enzymatic Cathepsin D (Cat D) FRET assay; assay type: biochemical; conditions: read-out: CatD IC50
T1 construct: Recombinant Cat D was expressed in CHO cells; made in house; host or cells: CHO cells
How it was run: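 Recombinant Cat D expressed in CHO cells, used at 9 nM and pre-incubated one hour with serially diluted inhibitor in DMSO. Peptide substrate carries a fluorophore and quencher flanking the cleavage site; reaction stopped with Tris buffer raising pH to neutrality, then fluorescence read.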

[2] = target: Beta Secretase enzyme (BACE1) (Homo sapiens, UniProt P56817); assay: In vitro enzymatic BACE FRET assay; assay type: biochemical; conditions: read-out: BACE1 FRET assay IC50
How it was run: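 BACE1 cleavage of a 50 nM fluorophore/quencher peptide FRET substrate ran for one hour in 0.05 M acetate pH 4.2, 10% DMSO, 100 uM genapol. Tris buffer raised pH to neutrality to stop the reaction before fluorescence was read (excitation 488 nm, […]).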

T1 sequence (P07339 65-412, species assumed): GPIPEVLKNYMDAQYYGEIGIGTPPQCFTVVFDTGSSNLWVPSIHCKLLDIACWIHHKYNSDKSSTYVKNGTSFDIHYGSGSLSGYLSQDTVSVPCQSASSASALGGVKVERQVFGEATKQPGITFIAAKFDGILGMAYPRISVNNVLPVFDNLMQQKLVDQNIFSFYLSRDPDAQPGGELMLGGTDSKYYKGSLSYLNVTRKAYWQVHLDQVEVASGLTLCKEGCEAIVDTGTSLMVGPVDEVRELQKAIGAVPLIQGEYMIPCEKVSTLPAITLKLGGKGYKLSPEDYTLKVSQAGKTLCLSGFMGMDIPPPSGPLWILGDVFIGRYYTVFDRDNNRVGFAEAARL
Sequence of Beta Secretase enzyme (BACE1) (P56817 46-501): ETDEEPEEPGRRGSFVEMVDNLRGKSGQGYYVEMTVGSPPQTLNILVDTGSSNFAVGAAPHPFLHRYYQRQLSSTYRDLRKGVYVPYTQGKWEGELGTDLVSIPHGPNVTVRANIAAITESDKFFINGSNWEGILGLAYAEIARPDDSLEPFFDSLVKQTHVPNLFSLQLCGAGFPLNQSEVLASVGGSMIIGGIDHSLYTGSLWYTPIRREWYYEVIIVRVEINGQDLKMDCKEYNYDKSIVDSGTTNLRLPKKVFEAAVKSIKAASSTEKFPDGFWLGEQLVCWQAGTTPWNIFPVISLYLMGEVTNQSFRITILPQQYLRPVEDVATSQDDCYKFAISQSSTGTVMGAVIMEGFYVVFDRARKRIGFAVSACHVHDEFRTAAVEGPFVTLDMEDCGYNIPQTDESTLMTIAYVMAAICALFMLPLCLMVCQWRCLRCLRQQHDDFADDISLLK

IC50 (Cathepsin D (Cat D)) [µM]	IC50 [2] [µM]	IC50 ([1]; average IC50, cell assay) [µM]	IC50 ([2]; average IC50, enzyme assay) [µM]	SMILES	other results
247	0.011			CC1(C)C(N)=N[C@](C)(c2cc(NC(=O)c3ccc(C(F)F)cn3)cnc2F)CS1(=O)=O [Example 404, N-(5-((3R)-5-amino-3,6,6-trimethyl-1,1-dioxido-3,6-dihydro-2H-1,4-thiazin-3-yl)-6-fluoro-3-pyridinyl)-5-(difluoromethyl)-2-pyridinecarboxamide]	IC50 [1]: 0.0119 µM
389		0.0319	0.00322	CC1(C)C(N)=N[C@](C)(c2cc(Nc3nccc4nc(OCC(F)(F)F)cnc34)ccc2F)CS1(=O)=O [Example 442, N-(3-((3R)-5-amino-3,6,6-trimethyl-1,1-dioxido-3,6-dihydro-2H-1,4-thiazin-3-yl)-4-fluorophenyl)-2-(2,2,2-trifluoroethoxy)pyrido[3,4-b]pyrazin-5-amine]	
855		0.0651	0.00271	Cc1cc(OCCF)cnc1C(=O)Nc1ccc(F)c([C@]2(CF)CS(=O)(=O)C(C)(C)C(N)=N2)c1 [Example 149, (S)—N-(3-(5-amino-3-(fluoromethyl)-6,6-dimethyl-1,1-dioxido-3,6-dihydro-2H-1,4-thiazin-3-yl)-4-fluorophenyl)-5-(2-fluoroethoxy)-3-methylpicolinamide]	
66.7	0.00054			CC1(C)C(N)=N[C@](C)(c2cc(Nc3nccc4cc(C#N)cnc34)ccc2F)CS1(=O)=O [Example 48, 8-((3-((3R)-5-amino-3,6,6-trimethyl-1,1-dioxido-3,6-dihydro-2H-1,4-thiazin-3-yl)-4-fluorophenyl)amino)-1,7-naphthyridine-3-carbonitrile]	IC50 ([1]; Aβ40, 24 h incubation): 0.0019 µM
228			0.00283	COc1cnc(C(=O)Nc2ccc(F)c([C@]3(C)CS(=O)(=O)C(C)(C)C(N)=N3)c2)c(C)c1 [Example 357, N-(3-((3R)-5-amino-3,6,6-trimethyl-1,1-dioxido-3,6-dihydro-2H-1,4-thiazin-3-yl)-4-fluorophenyl)-5-methoxy-3-methyl-2-pyridinecarboxamide]	IC50 ([1]; average IC50, HEK cell assay): 0.0025 µM
12.9		0.0828	0.0919	CC1(C)C(N)=N[C@](C)(c2cc(Oc3cccc(C#N)n3)ccc2F)CS1(=O)=O [Example 283, 6-(3-((3R)-5-amino-3,6,6-trimethyl-1,1-dioxido-3,6-dihydro-2H-1,4-thiazin-3-yl)-4-fluorophenoxy)-2-pyridinecarbonitrile]	
228				CC1(C)C(N)=N[C@](CF)(c2cc(N)ccc2F)CS1(=O)=O [Example 456, (5S)-5-(5-amino-2-fluorophenyl)-5-(fluoromethyl)-2,2-dimethyl-5,6-dihydro-2H-1,4-thiazin-3-amine 1,1-dioxide]	IC50 ([1]; average IC50, HEK cells): > 15.6 µM; IC50 ([2]; average IC50): 2.53 µM
186		0.0083	0.00927	Cc1cc(OC(F)F)cnc1C(=O)Nc1cc([C@]2(C)CS(=O)(=O)C(C)(C)C(N)=N2)c(=O)n(C)c1 [Example 171, (R)—N-(5-(5-amino-3,6,6-trimethyl-1,1-dioxido-3,6-dihydro-2H-1,4-thiazin-3-yl)-1-methyl-6-oxo-1,6-dihydropyridin-3-yl)-5-(difluoromethoxy)-3-methylpicolinamide]	
335	0.003			COc1cnc(C(=O)Nc2ccc(F)c([C@]3(CF)CS(=O)(=O)C(C)(C)C(N)=N3)c2)c(C)c1 [Example 377, N-(3-((3S)-5-amino-3-(fluoromethyl)-6,6-dimethyl-1,1-dioxido-3,6-dihydro-2H-1,4-thiazin-3-yl)-4-fluorophenyl)-5-methoxy-3-methyl-2-pyridinecarboxamide]	IC50 [1]: 0.0098 µM
49.8		0.161	0.0452	CC1(C)C(N)=N[C@](C)(c2cc(NCc3nn(CC(F)(F)F)cc3Cl)ccc2F)CS1(=O)=O [Example 108, (R)-5-amino-3-(5-(((4-chloro-1-(2,2,2-trifluoroethyl)-1H-pyrazol-3-yl)methyl)amino)-2-fluorophenyl)-3,6,6-trimethyl-3,6-dihydro-2H-1,4-thiazine 1,1-dioxide]	
33		0.0122	0.00328	CC1(C)C(N)=N[C@](C)(c2cc(Nc3ncnc4cc(Cl)cnc34)cnc2F)CS1(=O)=O [Example 225, N-(5-((3R)-5-amino-3,6,6-trimethyl-1,1-dioxido-3,6-dihydro-2H-1,4-thiazin-3-yl)-6-fluoro-3-pyridinyl)-7-chloropyrido[3,2-d]pyrimidin-4-amine]	
75.6			0.0313	COc1cc(Cl)ccc1C(=O)Nc1ccc(F)c([C@]2(C)CS(=O)(=O)C(C)(C)C(N)=N2)c1 [Example 345, N-(3-((3R)-5-amino-3,6,6-trimethyl-1,1-dioxido-3,6-dihydro-2H-1,4-thiazin-3-yl)-4-fluorophenyl)-4-chloro-2-methoxybenzamide]	IC50 ([1]; average IC50, HEK cell assay): 0.0713 µM
31.2		2.39	6.06	C[C@@]1(c2cccc(Br)c2)CS(=O)(=O)C2(CCC2)C(N)=N1 [Example 154, (R)-9-amino-7-(3-bromophenyl)-7-methyl-5-thia-8-azaspiro[3.5]non-8-ene 5,5-dioxide]	
217		2.02	2.69	Cc1nc(Oc2ccc(F)c([C@]3(C)CS(=O)(=O)C(C)(C)C(N)=N3)c2)ccc1C#N [Example 272, 6-(3-((3R)-5-amino-3,6,6-trimethyl-1,1-dioxido-3,6-dihydro-2H-1,4-thiazin-3-yl)-4-fluorophenoxy)-2-methyl-3-pyridinecarbonitrile]	
375		0.159	0.0302	CC1(C)C(N)=N[C@](CF)(c2cc(Nc3nncc4cc(Br)ccc34)ccc2F)CS1(=O)=O [Example 449, N-(3-((3S)-5-amino-3-(fluoromethyl)-6,6-dimethyl-1,1-dioxido-3,6-dihydro-2H-1,4-thiazin-3-yl)-4-fluorophenyl)-6-bromo-1-phthalazinamine]	
2780	0.0011			CC1(C)C(N)=N[C@](C)(c2cc(NC(=O)c3cnc(OCC(F)(F)F)cn3)cnc2F)CS1(=O)=O [Example 402, N-(5-((3R)-5-amino-3,6,6-trimethyl-1,1-dioxido-3,6-dihydro-2H-1,4-thiazin-3-yl)-6-fluoro-3-pyridinyl)-5-(2,2,2-trifluoroethoxy)-2-pyrazinecarboxamide]	IC50 [1]: 0.011 µM
69.8	0.0627			COc1cnc2c(Nc3ccc(F)c([C@]4(C)CS(=O)(=O)CC(N)=N4)c3)nccc2c1 [Example 56, N-(3-((3R)-5-amino-3-methyl-1,1-dioxido-3,6-dihydro-2H-1,4-thiazin-3-yl)-4-fluorophenyl)-3-methoxy-1,7-naphthyridin-8-amine]	IC50 ([1]; Aβ40, 24 h incubation): 0.0271 µM
333	0.252			COc1cnc(C(=O)Nc2cc(C3(C)CS(=O)(=O)C(C)(C)C(N)=N3)c(F)cn2)cn1 (stereo not drawn) [Example 41, N-(4-(5-amino-3,6,6-trimethyl-1,1-dioxido-3,6-dihydro-2H-1,4-thiazin-3-yl)-5-fluoropyridin-2-yl)-5-methoxypyrazine-2-carboxamide]	IC50 ([1]; Aβ40, 24 h incubation): 0.935 µM
> 400		0.049	0.0016	CCOc1cnc2c(Nc3ccc(F)c([C@]4(CF)CS(=O)(=O)C(C)(C)C(N)=N4)c3)ncc(F)c2c1 [Example 435, N-(3-((3S)-5-amino-3-(fluoromethyl)-6,6-dimethyl-1,1-dioxido-3,6-dihydro-2H-1,4-thiazin-3-yl)-4-fluorophenyl)-3-ethoxy-5-fluoro-1,7-naphthyridin-8-amine]	
391	0.00156			Cc1cc(OCC2CC2)cnc1C(=O)Nc1ccc(F)c([C@]2(CF)CS(=O)(=O)C3(CCC3)C(N)=N2)c1 [Example 371, N-(3-((7S)-9-amino-7-(fluoromethyl)-5,5-dioxido-5-thia-8-azaspiro[3.5]non-8-en-7-yl)-4-fluorophenyl)-5-(cyclopropylmethoxy)-3-methyl-2-pyridinecarboxamide]	IC50 [1]: 0.077 µM

SMILES	IC50 (Cathepsin D (Cat D)) [µM]	IC50 [2] [µM]	IC50 ([1]; average IC50, cell assay) [µM]	IC50 ([2]; average IC50, enzyme assay) [µM]	other results
C[C@@]1(c2cc(NC(=O)c3ccc(Cl)cn3)ccc2F)CS(=O)(=O)C2(CC2)C(N)=N1 [Example 199, N-(3-((6R)-8-amino-6-methyl-4,4-dioxido-4-thia-7-azaspiro[2.5]oct-7-en-6-yl)-4-fluorophenyl)-5-chloro-2-pyridinecarboxamide]	81				IC50 ([1]; average IC50, HEK cells): 0.0011 µM; IC50 ([2]; average IC50): 0.0019 µM
CC1(C)C(N)=N[C@](C)(c2cc(Nc3ncc(C#C[Si](C)(C)C)c4cc(Cl)cnc34)ccc2F)CS1(=O)=O [Example 189, (R)-5-amino-3-(5-((3-chloro-5-((trimethylsilyl)ethynyl)-1,7-naphthyridin-8-yl)amino)-2-fluorophenyl)-3,6,6-trimethyl-3,6-dihydro-2H-1,4-thiazine 1,1-dioxide]	> 4.94		0.231	0.0068	
